The values below come from ChEMBL document CHEMBL5143691, “Lead optimization of pyrido[2,3-d][1]benzazepin-6-one derivatives leading to the discovery of a potent, selective, and orally available human parathyroid hormone receptor 1 (hPTHR1) antagonist (DS69910557)” (Bioorg Med Chem, 2022).

Values after ≈ are worked out from the molar mass of the structure shown. A value given as a limit tells only on which side of the number the result lay.

The nature of data set [1]: physchem. The settings on record: JP2 fluid, pH 6.8.
A short description of data set [2]: physchem. The settings on record: JP1 fluid, pH 1.2.
For data set [3], the target named is T1, Parathyroid hormone/parathyroid hormone-related peptide receptor (Homo sapiens, UniProt Q03431).
T1 sequence (Q03431 whole entry): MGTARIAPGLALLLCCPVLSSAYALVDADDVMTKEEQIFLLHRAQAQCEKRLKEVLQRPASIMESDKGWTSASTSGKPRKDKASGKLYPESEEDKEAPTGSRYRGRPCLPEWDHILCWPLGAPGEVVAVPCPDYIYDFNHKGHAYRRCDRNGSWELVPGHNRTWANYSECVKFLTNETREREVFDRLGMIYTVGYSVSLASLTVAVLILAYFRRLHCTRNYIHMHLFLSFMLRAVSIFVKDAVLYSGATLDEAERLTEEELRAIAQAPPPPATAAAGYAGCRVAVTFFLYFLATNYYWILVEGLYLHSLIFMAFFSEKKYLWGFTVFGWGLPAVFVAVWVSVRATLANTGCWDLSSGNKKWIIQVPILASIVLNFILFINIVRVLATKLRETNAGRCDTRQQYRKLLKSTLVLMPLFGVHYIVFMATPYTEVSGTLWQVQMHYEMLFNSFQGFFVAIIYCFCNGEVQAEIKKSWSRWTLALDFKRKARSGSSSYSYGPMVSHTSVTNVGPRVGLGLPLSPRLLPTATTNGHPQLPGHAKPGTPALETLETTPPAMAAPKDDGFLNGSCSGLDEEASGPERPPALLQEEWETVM
Nature of the data set: Antagonist activity against human PTHR1 expressed in CHO-K1 cells assessed as reduction in PTH induced cAMP level incubated for 30 mins in presence of IBMX by cAMP assay.

The nature of data set [4]: Metabolic stability in rat liver microsomes assessed as compound remaining at 1 uM incubated for 30 mins in presence of NADPH by LC-MS/MS analysis. (Liver microsomes are a subcellular fraction often used to study metabolism.)
The next data set has as its target CYP2D6 (Homo sapiens, UniProt P10635). Nature of the data set: Inhibition of CYP2D6 (unknown origin) at 10 uM relative to control. The format is ADME.
The target of a further data set is T2, CYP1A2 (Homo sapiens, UniProt P05177).
T2 sequence (P05177 whole entry): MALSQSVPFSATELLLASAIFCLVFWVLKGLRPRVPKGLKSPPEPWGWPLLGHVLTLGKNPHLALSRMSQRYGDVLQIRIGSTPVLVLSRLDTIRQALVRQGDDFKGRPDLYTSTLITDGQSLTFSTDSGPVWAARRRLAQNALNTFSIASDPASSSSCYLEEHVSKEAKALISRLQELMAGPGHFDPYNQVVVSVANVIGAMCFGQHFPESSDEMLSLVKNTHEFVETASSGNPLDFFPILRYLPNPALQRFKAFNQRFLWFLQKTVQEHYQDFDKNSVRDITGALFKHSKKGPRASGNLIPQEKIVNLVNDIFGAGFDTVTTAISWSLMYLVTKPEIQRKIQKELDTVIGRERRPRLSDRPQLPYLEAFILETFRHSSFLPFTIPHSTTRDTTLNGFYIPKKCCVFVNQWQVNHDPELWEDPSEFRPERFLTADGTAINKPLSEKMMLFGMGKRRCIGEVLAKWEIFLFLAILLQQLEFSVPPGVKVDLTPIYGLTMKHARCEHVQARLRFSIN
Kind of data set: Inhibition of CYP1A2 (unknown origin) at 10 uM relative to control. It counts as ADME.

The target in a further data set is hERG (KCNH2) (Homo sapiens, UniProt Q12809). Kind of data set: Inhibition of human ERG potassium channel expressed in CHO-K1 cells at 3 uM incubated for 5 mins by patch clamp assay. It counts as toxicity, cell-based. Particulars: CHO-K1 cells expressing human ERG potassium channel. Background: The patch-clamp technique gives a direct electrical read-out from membranes.

The target in a further data set is T3, CYP2C8 (Homo sapiens, UniProt P10632).
T3 sequence (P10632 whole entry): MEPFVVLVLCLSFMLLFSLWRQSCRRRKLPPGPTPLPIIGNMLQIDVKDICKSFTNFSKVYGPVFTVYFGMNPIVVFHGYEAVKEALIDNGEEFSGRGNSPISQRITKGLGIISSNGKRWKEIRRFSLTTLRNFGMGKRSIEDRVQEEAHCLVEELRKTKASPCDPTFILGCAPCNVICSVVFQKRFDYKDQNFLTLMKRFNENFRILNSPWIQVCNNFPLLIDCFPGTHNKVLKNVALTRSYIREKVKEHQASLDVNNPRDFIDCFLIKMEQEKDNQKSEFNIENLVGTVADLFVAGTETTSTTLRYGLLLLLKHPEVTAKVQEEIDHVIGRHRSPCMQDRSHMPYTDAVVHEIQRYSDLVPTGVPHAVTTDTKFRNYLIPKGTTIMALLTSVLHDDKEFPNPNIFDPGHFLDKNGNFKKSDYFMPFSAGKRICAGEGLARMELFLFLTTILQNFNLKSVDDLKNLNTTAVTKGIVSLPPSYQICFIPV
Kind of data set: Inhibition of CYP2C8 (unknown origin) at 10 uM relative to control. The format is ADME.

A further data set addresses CYP2C19 (Homo sapiens, UniProt P33261). Nature of the data set: Inhibition of CYP2C19 (unknown origin) at 10 uM relative to control. The format is ADME.
Data set [5] in a line: Distribution coefficient, log D of compound in 1-octanol and aqueous phosphate buffered saline at pH 7.4 incubated for 30 mins by HPLC-MS analysis. The settings on record: 1-octanol/phosphate buffered saline.
A further data set is described as follows: in vivo. The settings on record: Sprague-Dawley, rat, po, 5 mg/kg.
A short description of data set [6]: AUClast in Sprague-Dawley rat at 5 mg/kg, po by LC-MS/MS analysis. Particulars: in vivo.

hERG (KCNH2), sequence (Q12809 whole entry): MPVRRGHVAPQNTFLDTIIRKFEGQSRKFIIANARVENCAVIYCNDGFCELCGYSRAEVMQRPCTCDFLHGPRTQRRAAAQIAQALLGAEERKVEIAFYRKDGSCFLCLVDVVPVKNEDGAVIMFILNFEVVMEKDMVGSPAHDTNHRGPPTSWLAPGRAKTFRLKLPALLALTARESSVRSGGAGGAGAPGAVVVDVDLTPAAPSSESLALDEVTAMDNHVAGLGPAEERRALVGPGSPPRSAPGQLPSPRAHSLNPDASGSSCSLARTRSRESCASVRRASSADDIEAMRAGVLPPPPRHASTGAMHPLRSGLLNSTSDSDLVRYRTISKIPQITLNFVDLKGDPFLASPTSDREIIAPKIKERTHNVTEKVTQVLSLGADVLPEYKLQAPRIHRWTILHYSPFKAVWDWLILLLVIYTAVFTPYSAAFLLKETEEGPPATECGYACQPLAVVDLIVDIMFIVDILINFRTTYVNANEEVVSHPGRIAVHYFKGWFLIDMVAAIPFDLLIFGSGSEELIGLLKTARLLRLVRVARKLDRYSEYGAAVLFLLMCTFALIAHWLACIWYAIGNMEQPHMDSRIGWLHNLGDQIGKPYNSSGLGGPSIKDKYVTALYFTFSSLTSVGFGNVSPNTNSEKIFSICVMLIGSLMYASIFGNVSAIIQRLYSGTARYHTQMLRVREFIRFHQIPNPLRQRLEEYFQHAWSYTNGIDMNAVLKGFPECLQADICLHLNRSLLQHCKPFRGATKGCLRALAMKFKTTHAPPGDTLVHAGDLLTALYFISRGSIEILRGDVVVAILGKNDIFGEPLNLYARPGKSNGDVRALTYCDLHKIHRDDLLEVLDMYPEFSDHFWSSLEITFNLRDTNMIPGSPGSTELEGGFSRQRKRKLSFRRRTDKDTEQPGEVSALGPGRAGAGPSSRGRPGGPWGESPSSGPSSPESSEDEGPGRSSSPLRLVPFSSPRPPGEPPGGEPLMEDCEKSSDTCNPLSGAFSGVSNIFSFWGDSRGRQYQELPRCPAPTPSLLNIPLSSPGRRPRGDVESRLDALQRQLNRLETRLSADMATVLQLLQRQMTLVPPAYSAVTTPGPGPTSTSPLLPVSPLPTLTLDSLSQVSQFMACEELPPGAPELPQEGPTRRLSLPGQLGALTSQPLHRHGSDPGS
CYP2C19, sequence (P33261 whole entry): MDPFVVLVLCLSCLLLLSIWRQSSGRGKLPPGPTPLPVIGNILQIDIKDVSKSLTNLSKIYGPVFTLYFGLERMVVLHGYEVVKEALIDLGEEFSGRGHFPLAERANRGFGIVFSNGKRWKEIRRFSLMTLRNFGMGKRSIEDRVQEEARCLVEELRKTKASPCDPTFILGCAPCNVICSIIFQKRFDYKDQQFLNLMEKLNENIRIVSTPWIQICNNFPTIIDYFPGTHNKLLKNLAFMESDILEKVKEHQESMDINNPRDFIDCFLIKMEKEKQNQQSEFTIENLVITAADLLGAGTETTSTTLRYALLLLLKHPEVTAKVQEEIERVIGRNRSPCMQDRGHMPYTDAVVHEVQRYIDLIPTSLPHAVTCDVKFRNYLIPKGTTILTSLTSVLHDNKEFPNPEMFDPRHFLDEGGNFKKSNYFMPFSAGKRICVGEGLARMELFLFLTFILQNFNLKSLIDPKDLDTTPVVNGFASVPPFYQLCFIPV
CYP2D6, sequence (P10635 whole entry): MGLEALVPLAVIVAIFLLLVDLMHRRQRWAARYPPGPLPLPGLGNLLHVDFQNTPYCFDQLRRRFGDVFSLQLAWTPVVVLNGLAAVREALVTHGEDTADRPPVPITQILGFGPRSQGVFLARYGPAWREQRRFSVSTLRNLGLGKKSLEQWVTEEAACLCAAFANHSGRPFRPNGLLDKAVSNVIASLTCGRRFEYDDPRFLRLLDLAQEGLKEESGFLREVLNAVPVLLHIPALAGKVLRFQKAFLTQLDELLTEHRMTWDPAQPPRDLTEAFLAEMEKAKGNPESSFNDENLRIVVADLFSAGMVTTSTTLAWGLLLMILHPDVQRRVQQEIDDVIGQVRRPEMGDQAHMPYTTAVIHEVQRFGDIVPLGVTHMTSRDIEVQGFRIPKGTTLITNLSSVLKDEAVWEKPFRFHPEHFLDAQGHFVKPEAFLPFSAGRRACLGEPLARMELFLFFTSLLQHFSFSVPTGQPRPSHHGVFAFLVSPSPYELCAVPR

As to `CC1(C)C(=O)N(c2ccc(N3CC(CNC4CCOCC4)(C(=O)O)C3)cc2)c2cc(Cl)ccc2-c2cc(Cl)cnc21`, the solubility (commonly the dissolved amount per volume that the medium holds) at 4 h in “physchem [1]” was determined as 97 µg/mL (≈ 163 µM); in “physchem [2]” it was 100 µg/mL (≈ 168 µM). Besides, the IC50 (commonly the concentration that inhibits the measured activity by half) in [3] came out at 23000 nM. For the same compound, in [4], the share remaining (usually the share of the starting amount still present when the sample was taken) at 0.5 h, 1 µM came to 93%.
For `CC1(C)C(=O)N(c2ccc(N3CC(F)(CN[C@H]4CC[C@H](C(=O)O)CC4)C3)cc2)c2cc(Cl)ccc2-c2cc(Cl)cnc21`, the inhibition at 10 µM against CYP2D6, against CYP1A2, at CYP2C8 and at CYP2C19 was under 50% each time. The inhibition – broadly, the change of the read-out against control, counted positive when it falls – at 5 min, 3 µM against hERG (KCNH2) was determined as 2%.
As for `CC1(C)C(=O)N(c2ccc(N3CC(O)(CNC4CCOCC4)C3)cc2)c2cc(Cl)ccc2-c2cc(Cl)cnc21`, the solubility at 4 h in “physchem [1]” came out at 88 µg/mL (≈ 155 µM); in “physchem [2]” it was 940 µg/mL (≈ 1660 µM). Besides, in data set [3], the IC50 turned out to be 840 nM. Further, the fraction remaining at 0.5 h, 1 µM in [4] worked out at 82%.
The compound `CC1(C)C(=O)N(c2ccc(N3CC(CN[C@H]4CC[C@H](C(=O)O)CC4)C3)cc2)c2cc(Cl)ccc2-c2cc(Cl)cnc21` yielded an inhibition at 5 min, 3 µM against hERG (KCNH2) of 0%.
For `COC1(CN(C)C2CCOCC2)CN(c2ccc(N3C(=O)C(C)(C)c4ncc(Cl)cc4-c4ccc(Cl)cc43)cc2)C1`, the figures for the solubility at 4 h in the data set “physchem [1]” and in “physchem [2]” were 2.5 µg/mL (≈ 4.2 µM) and 530 µg/mL (≈ 890 µM), respectively. For the same compound, in [3], the IC50 came out at 780 nM. In data set [4], the fraction remaining at 0.5 h, 1 µM came to 23%.
`CC1(C)C(=O)N(c2ccc(N3CC(F)(CNC45CCC(C(=O)O)(CC4)CC5)C3)cc2)c2cc(Cl)ccc2-c2cc(Cl)cnc21`: in [5], the logD (as a rule, lipophilicity at a set pH, counting ionised and neutral species) at 0.5 h was 2.8. Further, the IC50 in data set [3] amounted to 90 nM. In addition, in “in vivo”, the Cmax (usually the maximum level reached in the sampled fluid or tissue) came to 900 ng/mL. The AUC(0-t) (as a rule, exposure summed from dosing to a finite time, without extrapolation to infinity) in data set [6] was 11900 ng·h/mL. Besides, the share remaining at 0.5 h, 1 µM in [4] was 97%.
In turn, `COC1(CN[C@H]2CC[C@H](C(=O)O)CC2)CN(c2ccc(N3C(=O)C(C)(C)c4ncc(Cl)cc4-c4ccc(Cl)cc43)cc2)C1` had an inhibition at 5 min, 3 µM against hERG (KCNH2) of 0%.
In the case of `COC(=O)C1(CNC2CCOCC2)CN(c2ccc(N3C(=O)C(C)(C)c4ncc(Cl)cc4-c4ccc(Cl)cc43)cc2)C1`, the solubility at 4 h in the data set “physchem [1]” turned out to be 0.7 µg/mL (≈ 1.15 µM); in the data set “physchem [2]” it was 160 µg/mL (≈ 262 µM). In addition, the IC50 in [3] amounted to 110 nM. Further, in data set [4], the share remaining at 0.5 h, 1 µM stood at 23%.
